Reference: ChEMBL document CHEMBL4732045, “Amide Bond Bioisosteres: Strategies, Synthesis, and Successes” (J Med Chem, 2020)
≈ marks a conversion by molar mass, not a printed value. Peptide text beside a SMILES is read from it. * marks the point of attachment. Hica(2S) = CC(C)C[C@H](O)C(=O)O; Boc = CC(C)(C)OC(=O)*

Key:
[1] = Inhibition of [125]BH-CCK8 binding to guinea pig cortex CCKBR by radioligand binding assay; type: tissue-based, Cavia porcellus
[2] = molecular target: Gastrin/cholecystokinin type B receptor (Homo sapiens) (UniProt P32239); test: Agonist activity at CCKBR in human NCI-H345 cells assessed as calcium release relative to control; type: functional, cell-based; settings: filed as agonist
Chain of Gastrin/cholecystokinin type B receptor (Homo sapiens) (P32239 whole entry): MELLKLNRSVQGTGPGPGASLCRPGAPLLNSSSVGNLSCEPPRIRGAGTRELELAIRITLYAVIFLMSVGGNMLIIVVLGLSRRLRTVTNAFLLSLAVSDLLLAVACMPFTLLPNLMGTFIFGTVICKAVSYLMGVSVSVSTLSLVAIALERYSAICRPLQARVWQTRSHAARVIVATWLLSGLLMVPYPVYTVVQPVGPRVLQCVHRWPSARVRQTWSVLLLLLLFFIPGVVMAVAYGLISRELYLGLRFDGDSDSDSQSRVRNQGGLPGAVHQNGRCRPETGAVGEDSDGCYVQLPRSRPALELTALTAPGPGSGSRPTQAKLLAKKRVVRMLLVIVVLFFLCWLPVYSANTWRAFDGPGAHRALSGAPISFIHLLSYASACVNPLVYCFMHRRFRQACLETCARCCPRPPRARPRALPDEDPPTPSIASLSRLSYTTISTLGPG

MDA-MB-231 [3] = test: Antitumor activity against human MDA-MB-231 cells xenografted in nude mouse assessed as reduction in tumor volume at 90 mg/kg, ip administered for 15 days (reference value: 550 +/- 98.6 mm3); type: functional; settings: time 15 day
MDA-MB-231 [4] = test: cells; settings: Homo sapiens, MDA-MB-231, 24 h
[5] = Antagonist activity at bombesin receptor in Sprague-Dawley rat pancreatic acini assessed as inhibition of bombesin-induced amylase release incubated for 30 mins; type: tissue-based, Pancreas
[6] = molecular target: T1, Delta-type opioid receptor (Mus musculus, UniProt P32300); test: Inhibition of [3H]-Deltorphin 2 binding to mouse delta opioid receptor expressed in rat GH3 cell membranes by Cheng-Prusoff analysis; parameters: species or system Cell membrane
T1 sequence (P32300 whole entry): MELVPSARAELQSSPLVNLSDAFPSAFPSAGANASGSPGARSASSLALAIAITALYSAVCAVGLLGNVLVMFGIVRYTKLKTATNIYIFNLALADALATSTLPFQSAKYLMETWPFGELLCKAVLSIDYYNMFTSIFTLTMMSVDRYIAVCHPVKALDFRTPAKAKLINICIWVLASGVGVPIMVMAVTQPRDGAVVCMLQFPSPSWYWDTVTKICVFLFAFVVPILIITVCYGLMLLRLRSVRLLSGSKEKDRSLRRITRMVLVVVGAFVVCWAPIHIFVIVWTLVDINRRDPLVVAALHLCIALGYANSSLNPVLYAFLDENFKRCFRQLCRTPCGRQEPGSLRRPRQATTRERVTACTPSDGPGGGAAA

[7] = molecular target: T1, Delta-type opioid receptor; test: Agonist activity at delta opioid receptor in mouse vas deferens assessed as inhibition of electric-field induced measured after 5 mins; type: tissue-based
[8] = Half life in Sprague-Dawley rat plasma measured after 60 mins by HPLC method; type: ADME, cell-free
[9] = molecular target: Cholecystokinin receptor type A (Cavia porcellus, UniProt Q63931); test: Inhibition of [125]BH-CCK8 binding to guinea pig pancreas CCKAR by radioligand binding assay; type: tissue-based
Chain of Cholecystokinin receptor type A (Q63931 whole entry): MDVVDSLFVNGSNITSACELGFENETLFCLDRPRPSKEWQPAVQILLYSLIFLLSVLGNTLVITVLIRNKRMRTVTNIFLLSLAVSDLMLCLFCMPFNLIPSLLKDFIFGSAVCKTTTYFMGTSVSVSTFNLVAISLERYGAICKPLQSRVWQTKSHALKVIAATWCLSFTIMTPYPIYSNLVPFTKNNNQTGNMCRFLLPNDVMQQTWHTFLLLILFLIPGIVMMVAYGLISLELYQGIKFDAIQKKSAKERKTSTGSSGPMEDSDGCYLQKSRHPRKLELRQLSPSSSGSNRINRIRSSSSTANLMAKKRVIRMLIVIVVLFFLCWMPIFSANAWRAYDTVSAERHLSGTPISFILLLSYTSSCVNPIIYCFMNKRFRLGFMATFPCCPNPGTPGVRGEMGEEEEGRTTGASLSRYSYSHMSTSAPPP

[10] = molecular target: Gastrin/cholecystokinin type B receptor (Homo sapiens, UniProt P32239); test: Agonist activity at CCKBR in human NCI-H345 cells assessed as calcium release; type: functional, cell-based
Chain of Gastrin/cholecystokinin type B receptor (P32239 whole entry): as the sequence (P32239 whole entry) above

clinical = settings: human
[11] = Inhibition of ACAT in cholesterol-fed New Zealand rabbit intestional microsomes using [1-14C]oleoyl-CoA as substrate preincubated for 5 mins followed by substrate addition and measured after 5 mins by liquid scintillation counting method; parameters: species or system Oryctolagus cuniculus, Intestine, Microsome
Rattus norvegicus = test: Hypocholesterolemic activity in cholestrol fed Sprague-Dawley rat assessed as decrease in total cholesterol at 0.05%, po administered for 1 week; type: functional; parameters: scale not given: the % may be the effect or the level left; settings: time 1 weeks
[12] = molecular target: T1, Delta-type opioid receptor; test: Inhibition of [3H]-Deltorphin 2 binding to mouse delta opioid receptor expressed in HEK293 cell membranes incubated for 60 mins by Cheng-Prusoff analysis; parameters: species or system Cell membrane
Interstitial collagenase = Interstitial collagenase (Homo sapiens, UniProt P03956); test: Inhibition of PMA-induced human skin fibroblast derived MMP1 by fluorometric assay; type: tissue-based
Chain of Interstitial collagenase (P03956 whole entry): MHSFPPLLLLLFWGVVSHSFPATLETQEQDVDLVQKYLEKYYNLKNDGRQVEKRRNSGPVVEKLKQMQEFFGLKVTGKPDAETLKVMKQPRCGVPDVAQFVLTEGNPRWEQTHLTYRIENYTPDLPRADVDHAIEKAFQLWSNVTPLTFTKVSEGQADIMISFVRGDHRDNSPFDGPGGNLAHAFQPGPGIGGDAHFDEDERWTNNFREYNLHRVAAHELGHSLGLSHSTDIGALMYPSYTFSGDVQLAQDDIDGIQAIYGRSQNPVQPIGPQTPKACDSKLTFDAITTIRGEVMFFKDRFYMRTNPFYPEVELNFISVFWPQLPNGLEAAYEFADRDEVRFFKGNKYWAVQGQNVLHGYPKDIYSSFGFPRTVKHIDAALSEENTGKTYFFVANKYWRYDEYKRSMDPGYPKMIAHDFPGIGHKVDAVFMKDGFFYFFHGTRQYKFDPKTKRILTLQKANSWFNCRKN

[13] = molecular target: 72 kDa type IV collagenase (Homo sapiens, UniProt P08253); test: Inhibition of TNF-induced MMP2 isolated from human HT-1080 cell medium by fluorometric assay; type: tissue-based
Chain of 72 kDa type IV collagenase (P08253 whole entry): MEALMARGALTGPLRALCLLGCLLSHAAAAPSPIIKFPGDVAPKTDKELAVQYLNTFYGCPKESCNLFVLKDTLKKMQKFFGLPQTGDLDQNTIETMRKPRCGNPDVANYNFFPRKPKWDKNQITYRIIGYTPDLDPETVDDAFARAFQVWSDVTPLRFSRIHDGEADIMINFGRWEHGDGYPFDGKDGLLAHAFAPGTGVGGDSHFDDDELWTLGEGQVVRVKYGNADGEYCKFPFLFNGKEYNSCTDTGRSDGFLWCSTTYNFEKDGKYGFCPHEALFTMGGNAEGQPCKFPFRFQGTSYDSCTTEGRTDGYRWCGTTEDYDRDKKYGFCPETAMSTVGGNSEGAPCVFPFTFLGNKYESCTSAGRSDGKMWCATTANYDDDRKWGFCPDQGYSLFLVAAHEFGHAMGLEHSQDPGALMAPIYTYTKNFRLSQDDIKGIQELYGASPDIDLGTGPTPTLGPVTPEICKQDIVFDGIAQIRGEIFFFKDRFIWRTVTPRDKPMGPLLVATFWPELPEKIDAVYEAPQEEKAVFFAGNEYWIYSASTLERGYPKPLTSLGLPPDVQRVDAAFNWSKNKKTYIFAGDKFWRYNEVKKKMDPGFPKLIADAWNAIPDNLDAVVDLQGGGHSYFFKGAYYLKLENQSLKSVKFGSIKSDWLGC

Stromelysin-1 = Stromelysin-1 (Homo sapiens, UniProt P08254); test: Inhibition of human MMP3 by fluorometric assay
Matrilysin = Matrilysin (Homo sapiens, UniProt P09237); test: Inhibition of human MMP7 by fluorometric assay
Chain of Matrilysin (P09237 whole entry): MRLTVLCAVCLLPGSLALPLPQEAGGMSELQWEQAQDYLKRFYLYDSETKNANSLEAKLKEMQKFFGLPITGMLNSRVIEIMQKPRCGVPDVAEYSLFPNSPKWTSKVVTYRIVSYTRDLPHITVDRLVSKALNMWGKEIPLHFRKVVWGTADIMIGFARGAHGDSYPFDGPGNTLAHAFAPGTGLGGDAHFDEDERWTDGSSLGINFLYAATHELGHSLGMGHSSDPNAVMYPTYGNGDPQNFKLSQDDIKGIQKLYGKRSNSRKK

[14] = Half life in rat at 30 mg/kg, po; type: ADME, organism-based; settings: in vivo
[15] = Oral bioavailability in rat at 30 mg/kg; type: ADME, organism-based; settings: in vivo
[16] = molecular target: Delta-type opioid receptor (Homo sapiens, UniProt P41143)
Chain of Delta-type opioid receptor (Homo sapiens, UniProt P41143) (P41143 whole entry): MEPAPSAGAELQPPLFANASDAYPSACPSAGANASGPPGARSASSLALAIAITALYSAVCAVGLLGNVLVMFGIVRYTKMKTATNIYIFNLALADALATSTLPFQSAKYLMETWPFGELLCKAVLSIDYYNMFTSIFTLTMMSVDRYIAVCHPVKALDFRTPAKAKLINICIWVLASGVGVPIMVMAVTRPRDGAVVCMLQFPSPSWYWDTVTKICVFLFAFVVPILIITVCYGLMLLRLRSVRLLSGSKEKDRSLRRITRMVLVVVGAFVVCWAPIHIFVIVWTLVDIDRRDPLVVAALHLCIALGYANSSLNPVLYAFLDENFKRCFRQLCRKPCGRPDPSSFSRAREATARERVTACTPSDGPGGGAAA

Mu-type opioid receptor = Mu-type opioid receptor (Homo sapiens, UniProt P35372)
Chain of Mu-type opioid receptor (P35372 whole entry): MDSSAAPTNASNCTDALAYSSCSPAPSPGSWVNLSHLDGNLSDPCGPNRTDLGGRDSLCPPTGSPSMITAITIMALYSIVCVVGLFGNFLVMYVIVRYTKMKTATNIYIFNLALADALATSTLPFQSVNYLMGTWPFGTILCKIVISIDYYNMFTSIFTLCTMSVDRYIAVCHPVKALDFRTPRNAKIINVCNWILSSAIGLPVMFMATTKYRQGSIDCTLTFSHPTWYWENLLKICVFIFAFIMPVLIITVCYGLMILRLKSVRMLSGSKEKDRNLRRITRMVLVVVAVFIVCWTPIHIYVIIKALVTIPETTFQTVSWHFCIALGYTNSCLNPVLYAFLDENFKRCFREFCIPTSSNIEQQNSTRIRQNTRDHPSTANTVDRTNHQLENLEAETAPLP

[17] = molecular target: Kappa-type opioid receptor (Homo sapiens, UniProt P41145)
Chain of Kappa-type opioid receptor (P41145 whole entry): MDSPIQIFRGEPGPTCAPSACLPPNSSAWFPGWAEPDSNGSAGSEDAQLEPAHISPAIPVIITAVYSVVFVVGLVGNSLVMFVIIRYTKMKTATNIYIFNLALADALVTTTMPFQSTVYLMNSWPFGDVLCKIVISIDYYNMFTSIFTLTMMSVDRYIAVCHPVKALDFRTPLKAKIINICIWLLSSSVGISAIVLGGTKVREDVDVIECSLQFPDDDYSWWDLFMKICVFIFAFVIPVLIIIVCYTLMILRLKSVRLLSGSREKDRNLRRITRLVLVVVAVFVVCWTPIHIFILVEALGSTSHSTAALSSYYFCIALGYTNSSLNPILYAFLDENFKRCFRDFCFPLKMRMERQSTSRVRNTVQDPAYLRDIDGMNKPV

MDA-MB-231 [18] = test: Antitumor activity against human MDA-MB-231 cells xenografted in nude mouse assessed as reduction in tumor volume at 70 mg/kg, ip administered for 15 days (reference value: 550 +/- 98.6 mm3); type: functional; settings: time 15 day
MCF-10A = test: Antiproliferative activity against human MCF-10A cells incubated for 24 hrs by MTT assay; type: functional, cell-based
[19] = Half-life in Sprague-Dawley rat plasma at 50 uM measured by LC-MS/MS analysis; type: ADME, cell-free
[20] = Half-life in human plasma at 50 uM measured by LC-MS/MS analysis; type: ADME, cell-free
Human betaherpesvirus 5 = test: Antiviral activity against HCMV infected in human Hs68 cells by plaque reduction assay; type: functional, cell-based; settings: Human betaherpesvirus 5, Hs68
Cannabinoid receptor 1 = Cannabinoid receptor 1 (Homo sapiens, UniProt P21554); test: Displacement of [3H]-CP55940 from human recombinant cannabinoid CB1 receptor expressed in HEK cells by Cheng-Prusoff analysis; type: cell-based
[21] = molecular target: T2, Transient receptor potential cation channel subfamily V member 1 (Homo sapiens, UniProt Q8NER1); test: Antagonist activity at human recombinant TRPV1 expressed in HEK293 cells assessed as effect on intracellular calcium level by FLOU-4 dye based fluorescence spectrometry; type: cell-based
T2 sequence (Q8NER1 whole entry): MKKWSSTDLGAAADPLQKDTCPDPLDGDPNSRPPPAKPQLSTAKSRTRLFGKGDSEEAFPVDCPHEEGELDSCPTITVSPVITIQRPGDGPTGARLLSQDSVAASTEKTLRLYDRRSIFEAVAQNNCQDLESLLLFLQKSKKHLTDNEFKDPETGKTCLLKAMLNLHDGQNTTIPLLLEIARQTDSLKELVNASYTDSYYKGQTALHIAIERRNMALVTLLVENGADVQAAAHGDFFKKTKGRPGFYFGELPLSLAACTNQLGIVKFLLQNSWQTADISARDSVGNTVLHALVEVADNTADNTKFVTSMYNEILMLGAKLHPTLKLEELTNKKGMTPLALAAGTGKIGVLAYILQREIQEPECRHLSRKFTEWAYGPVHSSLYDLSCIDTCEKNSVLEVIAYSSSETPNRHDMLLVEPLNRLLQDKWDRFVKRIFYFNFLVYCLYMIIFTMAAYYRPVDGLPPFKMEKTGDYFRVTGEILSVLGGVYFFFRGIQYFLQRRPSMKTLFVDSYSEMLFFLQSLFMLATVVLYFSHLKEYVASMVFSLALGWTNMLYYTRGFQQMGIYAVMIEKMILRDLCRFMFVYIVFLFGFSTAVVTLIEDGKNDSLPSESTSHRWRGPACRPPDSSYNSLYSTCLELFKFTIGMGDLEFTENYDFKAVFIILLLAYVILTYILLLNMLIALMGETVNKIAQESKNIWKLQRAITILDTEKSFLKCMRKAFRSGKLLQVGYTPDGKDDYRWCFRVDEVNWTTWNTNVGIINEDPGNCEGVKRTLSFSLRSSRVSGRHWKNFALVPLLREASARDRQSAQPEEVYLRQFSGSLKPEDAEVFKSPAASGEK

[22] = molecular target: T2, Transient receptor potential cation channel subfamily V member 1
[23] = molecular target: Protein-S-isoprenylcysteine O-methyltransferase (Homo sapiens, UniProt O60725); test: Inhibition of human isoprenylcysteine carboxyl methyltransferase expressed in Saccharomyces cerevisiae membranes using AFC as substrate in presence of 14C-SAM incubated for 30 min by scintillation counting method; type: cell membranes, Cell membrane
Chain of Protein-S-isoprenylcysteine O-methyltransferase (O60725 whole entry): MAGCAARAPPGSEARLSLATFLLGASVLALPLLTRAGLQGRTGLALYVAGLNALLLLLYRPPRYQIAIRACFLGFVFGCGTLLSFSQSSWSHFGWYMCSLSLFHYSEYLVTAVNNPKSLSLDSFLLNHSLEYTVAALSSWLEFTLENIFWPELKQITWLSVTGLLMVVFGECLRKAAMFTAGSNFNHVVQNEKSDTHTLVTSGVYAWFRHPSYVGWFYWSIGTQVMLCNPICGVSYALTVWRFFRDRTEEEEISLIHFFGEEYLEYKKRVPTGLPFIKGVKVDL

Integrin alpha-4/beta-1 = Integrin alpha-4/beta-1 (Homo sapiens, UniProt P05556+P13612); test: Displacement of 125I-VCAM-Ig from VLA4 in human Jurkat cells incubated for 30 mins by scintillation counting method; type: cell-based
[24] = Plasma clearance in rat; type: ADME
[25] = Oral bioavailability in Sprague-Dawley rat at 2 mg/kg; type: ADME, organism-based; settings: in vivo

Work on `CSCC[C@H](NC(=O)[C@H](Cc1c[nH]c2ccccc12)NC(=O)OC(C)(C)C)C(=O)N[C@@H](CC(=O)O)C(=O)N[C@@H](Cc1ccccc1)C(N)=O` yielded an IC50 [1] of 25 nM and an Emax [2] of 99%.

With `COc1cc(CNC(=O)CCCC/C=C/C(C)C)ccc1O` [CAPSAICIN] the Activity (MDA-MB-231 [3]) was 281.3 mm3 and the IC50 (MDA-MB-231 [4]) was 120000 nM.

With `CC(C)C[C@H](N)CNC(=O)[C@H](CC(C)C)NC(=O)[C@H](Cc1cnc[nH]1)NC(=O)CNC(=O)[C@@H](NC(=O)[C@H](C)NC(=O)[C@H](Cc1c[nH]c2ccccc12)NC(=O)[C@H](CCC(N)=O)NC(=O)[C@H](N)Cc1ccccc1)C(C)C` the IC50 [5] was 68.7 nM.

Work on `CC(C)C[C@@H](C(=O)O)N(C)C(=O)[C@H](Cc1ccccc1)NC(=O)CNC(=O)CNC(=O)[C@@H](N)Cc1ccc(O)cc1` yielded a Ki [6] of 12.6 nM, an EC50 [7] of 35 nM and a half-life [8] of 0.178 h.

`CC(C)C[C@H](NC(=O)OC(C)(C)C)C(=O)NCC(=O)N[C@@H](Cc1c[nH]c2ccccc12)C(=O)N[C@@H](CC(C)C)C(=O)N[C@@H](CC(=O)O)C(=O)N[C@@H](Cc1ccccc1)C(N)=O` (Boc-LGWLDF-NH2) gave an IC50 [1] of 54 nM, an IC50 [9] of 1600 nM and an EC50 [10] of 40 nM. For the same compound, the Emax [2] was 99%.

`Cc1nnc2n1-c1ccc(Cl)cc1C(c1ccccc1)=NC2` [ALPRAZOLAM] showed a half-life (clinical) of 6.3 h.

For `CCCCCCCCCCCCCCCCC(=O)Nc1c(C)cccc1C`, the IC50 [11] was 43 nM and the Activity (Rattus norvegicus) was 38%.

Compound `CC(C)C[C@H](NC(=O)[C@@H](/C=C(\F)CNC(=O)CNC(=O)[C@@H](N)Cc1ccc(O)cc1)Cc1ccccc1)C(=O)O` has a Ki [12] of 43 nM.

`C=CC[C@H](C(=O)NO)[C@@H](CC(C)C)C(=O)N[C@@H](Cc1ccc2c(c1)CCC2)C(=O)NC` showed an IC50 (Interstitial collagenase) of 2.2 nM, an IC50 [13] of 1.8 nM and an IC50 (Stromelysin-1) of 12 nM. For the same compound, the IC50 (Matrilysin) was 11 nM, the half-life [14] was 0.35 h and the bioavailability [15] was 0%.

In the case of `CC(C)C[C@H](NC(=O)[C@H](Cc1ccccc1)NC(=O)CNC(=O)CN[C@@H]([C@@H](N)Cc1ccc(O)cc1)C(F)(F)F)C(=O)O`, the EC50 [16] is reported as over 10000 nM, the EC50 (Mu-type opioid receptor) is reported as over 10000 nM and the EC50 [17] is reported as over 10000 nM.

Compound `CCCCS(=O)(=O)NCc1ccc2c(c1)OCO2` has an Activity (MDA-MB-231 [18]) of 133.4 mm3, an IC50 (MCF-10A) of 198000 nM and an IC50 (MDA-MB-231 [4]) of 87000 nM.

Compound `CC(C)C[C@H](NC(=O)[C@H](Cc1ccccc1)NC(=O)CNC(=O)C/C=C(\F)[C@@H](N)Cc1ccc(O)cc1)C(=O)O` has a half-life at 50 µM [19] of 4 h and a half-life at 50 µM [20] of 4 h.

`CC(C)Oc1ccccc1CNC(=O)Nc1ccc2cnccc2n1` gave an IC50 (Human betaherpesvirus 5) of 0.03 µg/mL (≈ 0.0892 µM).

With `CC(C)C[C@H](NC(=O)[C@H](Cc1ccccc1)NC(=O)CNC(=O)CN[C@H]([C@@H](N)Cc1ccc(O)cc1)C(F)(F)F)C(=O)O` the EC50 [16] was over 10000 nM, the EC50 (Mu-type opioid receptor) was over 10000 nM and the EC50 [17] was over 10000 nM.

With `CC(C)C[C@H](N)/C=C/NC(=O)[C@H](CC(C)C)NC(=O)[C@H](Cc1cnc[nH]1)NC(=O)CNC(=O)[C@@H](NC(=O)[C@H](C)NC(=O)[C@H](Cc1c[nH]c2ccccc12)NC(=O)[C@H](CCC(N)=O)NC(=O)[C@H](N)Cc1ccccc1)C(C)C` the IC50 [5] was 6.7 nM.

Work on `CC(C)C[C@H](OC(=O)[C@H](Cc1ccccc1)NC(=O)CNC(=O)CNC(=O)[C@@H](N)Cc1ccc(O)cc1)C(=O)O` (H-YGGF-{Hica(2S)}) yielded a Ki [6] of 11.9 nM, an EC50 [7] of 140 nM and a half-life [8] of 0.055 h.

`CCCCCCCCCCCCCCCCCNC(=O)Nc1c(C)cccc1C` showed an IC50 [11] of 160 nM and an Activity (Rattus norvegicus) of 55%.

`CCCCCCCc1cn(Cc2cc(OC)c(O)cc2I)nn1` showed a Ki (Cannabinoid receptor 1) of 440 nM, a Ki [21] of 0.69 nM and an EC50 [22] of over 10000 nM.

In the case of `CC(C)=CCC/C(C)=C/CC/C(C)=C/CSC[C@H](NC(=O)c1ccccc1Oc1ccccc1)C(=O)O`, the IC50 [23] is reported as 4300 nM.

With `CC[C@@]1(C(=O)N[C@@H](Cc2ccc(-c3c(OC)cccc3OC)cc2)C(=O)O)CCN1S(=O)(=O)c1ccccc1` the IC50 (Integrin alpha-4/beta-1) was 0.07 nM, the clearance [24] was 110 mL/min/kg and the bioavailability [25] was under 10%.
